Key:
[1] = refractive index (Na D-line) (dimensionless); xn = mol fraction of the nth substance listed; details: 101 kPa, Liquid
[2] = xn = mol fraction of the nth substance listed; details: 101 kPa, Liquid; for speed of sound: Sing-around technique in a fixed-path interferometer

CC1CCCCC1 [methylcyclohexane] + Cc1ccc(C)cc1
Details	mass density, 298.15 K [kg/m3]	mass density, 303.15 K [kg/m3]	mass density, 308.15 K [kg/m3]	refractive index, 298.15 K	refractive index, 303.15 K	refractive index, 308.15 K	speed of sound, 298.15 K [m/s]	viscosity, 298.15 K [mPa·s]	viscosity, 303.15 K [mPa·s]	viscosity, 308.15 K [mPa·s]
[1], x1 = 0.0993	–	–	–	1.4848	1.482	1.4793	–	–	–	–
[1], x1 = 0.2037	–	–	–	1.4767	1.4743	1.4718	–	–	–	–
[1], x1 = 0.3028	–	–	–	1.469	1.4668	1.4646	–	–	–	–
[1], x1 = 0.4047	–	–	–	1.4615	1.4594	1.4572	–	–	–	–
[1], x1 = 0.5382	–	–	–	1.4519	1.4498	1.4476	–	–	–	–
[1], x1 = 0.6035	–	–	–	1.4473	1.4451	1.443	–	–	–	–
[1], x1 = 0.703	–	–	–	1.4405	1.4384	1.4362	–	–	–	–
[1], x1 = 0.8037	–	–	–	1.4338	1.4314	1.429	–	–	–	–
[1], x1 = 0.8981	–	–	–	1.4279	1.4253	1.4228	–	–	–	–
[1], x1 = 1	–	–	–	1.4217	1.4192	1.4163	–	–	–	–
[2], x1 = 0.0993	846.6	842.3	837.9	–	–	–	1315	0.597	0.566	0.536
[2], x1 = 0.2037	836.2	831.8	827.5	–	–	–	1303	0.59	0.557	0.523
[2], x1 = 0.3028	826.4	822.1	817.8	–	–	–	1293	0.587	0.553	0.52
[2], x1 = 0.4047	816.7	812.3	808	–	–	–	1282	0.586	0.553	0.52
[2], x1 = 0.5382	804.2	799.9	795.5	–	–	–	1268	0.593	0.559	0.525
[2], x1 = 0.6035	798.3	794	789.6	–	–	–	1261	0.597	0.562	0.528
[2], x1 = 0.703	789.5	785.1	780.8	–	–	–	1250	0.608	0.573	0.537
[2], x1 = 0.8037	780.8	776.5	772.2	–	–	–	1239	0.625	0.588	0.55
[2], x1 = 0.8981	773	768.7	764.4	–	–	–	1228	0.646	0.607	0.569
[2], x1 = 1	765	760.7	756.3	–	–	–	1217	0.676	0.631	0.59

Cc1ccccc1 [toluene] + CC1CCCCC1
x2 = 0
Details	mass density, 298.15 K [kg/m3]	mass density, 303.15 K [kg/m3]	mass density, 308.15 K [kg/m3]	refractive index, 298.15 K	refractive index, 303.15 K	refractive index, 308.15 K	speed of sound, 298.15 K [m/s]	viscosity, 298.15 K [mPa·s]	viscosity, 303.15 K [mPa·s]	viscosity, 308.15 K [mPa·s]
[1]	–	–	–	1.4931	1.4902	1.4874	–	–	–	–
[2]	862.3	857.6	852.9	–	–	–	1314	0.559	0.526	0.497

CC1CCCCC1 [methylcyclohexane] + Cc1cc(C)cc(C)c1
x1 = 1
Details	mass density, 298.15 K [kg/m3]	mass density, 303.15 K [kg/m3]	mass density, 308.15 K [kg/m3]	refractive index, 298.15 K	refractive index, 303.15 K	refractive index, 308.15 K	speed of sound, 298.15 K [m/s]	viscosity, 298.15 K [mPa·s]	viscosity, 303.15 K [mPa·s]	viscosity, 308.15 K [mPa·s]
[1]	–	–	–	1.4217	1.4192	1.4163	–	–	–	–
[2]	765	760.7	756.3	–	–	–	1217	0.676	0.631	0.59

CC1CCCCC1 [methylcyclohexane] + c1ccccc1
Details	mass density, 298.15 K [kg/m3]	mass density, 303.15 K [kg/m3]	mass density, 308.15 K [kg/m3]	refractive index, 298.15 K	refractive index, 303.15 K	refractive index, 308.15 K	speed of sound, 298.15 K [m/s]	viscosity, 298.15 K [mPa·s]	viscosity, 303.15 K [mPa·s]	viscosity, 308.15 K [mPa·s]
[1], x1 = 0.104	–	–	–	1.484	1.481	1.4779	–	–	–	–
[1], x1 = 0.2045	–	–	–	1.4728	1.4702	1.4675	–	–	–	–
[1], x1 = 0.302	–	–	–	1.4628	1.4604	1.458	–	–	–	–
[1], x1 = 0.4006	–	–	–	1.455	1.4524	1.4499	–	–	–	–
[1], x1 = 0.5007	–	–	–	1.4475	1.4448	1.4422	–	–	–	–
[1], x1 = 0.6004	–	–	–	1.441	1.4384	1.4357	–	–	–	–
[1], x1 = 0.7056	–	–	–	1.4341	1.4316	1.4292	–	–	–	–
[1], x1 = 0.8033	–	–	–	1.429	1.4262	1.4235	–	–	–	–
[1], x1 = 0.8982	–	–	–	1.4245	1.4219	1.4192	–	–	–	–
[1], x1 = 1	–	–	–	1.4217	1.4192	1.4163	–	–	–	–
[2], x1 = 0.104	855.9	850.7	845.5	–	–	–	1293	0.584	0.546	0.509
[2], x1 = 0.2045	840.8	835.8	830.7	–	–	–	1284	0.566	0.53	0.494
[2], x1 = 0.302	827.6	822.7	817.8	–	–	–	1276	0.561	0.527	0.492
[2], x1 = 0.4006	815.8	811	806.2	–	–	–	1267	0.556	0.523	0.49
[2], x1 = 0.5007	805	800.3	795.6	–	–	–	1259	0.559	0.527	0.496
[2], x1 = 0.6004	795.3	790.6	786	–	–	–	1250	0.571	0.537	0.504
[2], x1 = 0.7056	785.9	781.4	776.8	–	–	–	1242	0.597	0.564	0.531
[2], x1 = 0.8033	778.5	774	769.5	–	–	–	1234	0.617	0.583	0.549
[2], x1 = 0.8982	771.4	767	762.6	–	–	–	1225	0.647	0.607	0.567
[2], x1 = 1	765	760.7	756.3	–	–	–	1217	0.676	0.631	0.59

c1ccccc1 [benzene] + CC1CCCCC1
x2 = 0
Details	mass density, 298.15 K [kg/m3]	mass density, 303.15 K [kg/m3]	mass density, 308.15 K [kg/m3]	refractive index, 298.15 K	refractive index, 303.15 K	refractive index, 308.15 K	speed of sound, 298.15 K [m/s]	viscosity, 298.15 K [mPa·s]	viscosity, 303.15 K [mPa·s]	viscosity, 308.15 K [mPa·s]
[1]	–	–	–	1.4971	1.4936	1.4903	–	–	–	–
[2]	873.4	868.1	862.7	–	–	–	1302	0.602	0.56	0.523

CC1CCCCC1 [methylcyclohexane] + Cc1ccccc1
Details	mass density, 298.15 K [kg/m3]	mass density, 303.15 K [kg/m3]	mass density, 308.15 K [kg/m3]	refractive index, 298.15 K	refractive index, 303.15 K	refractive index, 308.15 K	speed of sound, 298.15 K [m/s]	viscosity, 298.15 K [mPa·s]	viscosity, 303.15 K [mPa·s]	viscosity, 308.15 K [mPa·s]
[1], x1 = 0.1027	–	–	–	1.4838	1.4811	1.4783	–	–	–	–
[1], x1 = 0.205	–	–	–	1.475	1.4723	1.4696	–	–	–	–
[1], x1 = 0.3034	–	–	–	1.4666	1.4641	1.4615	–	–	–	–
[1], x1 = 0.4043	–	–	–	1.4586	1.4561	1.4537	–	–	–	–
[1], x1 = 0.5031	–	–	–	1.4511	1.4486	1.4461	–	–	–	–
[1], x1 = 0.5988	–	–	–	1.4443	1.4418	1.4392	–	–	–	–
[1], x1 = 0.7061	–	–	–	1.4373	1.4347	1.4321	–	–	–	–
[1], x1 = 0.8005	–	–	–	1.4315	1.4289	1.4263	–	–	–	–
[1], x1 = 0.8984	–	–	–	1.4261	1.4234	1.4208	–	–	–	–
[1], x1 = 1	–	–	–	1.4217	1.4192	1.4163	–	–	–	–
[2], x1 = 0.1027	849.5	844.9	840.3	–	–	–	1304	0.551	0.52	0.49
[2], x1 = 0.205	837.5	832.9	828.3	–	–	–	1295	0.547	0.518	0.489
[2], x1 = 0.3034	826.6	822	817.5	–	–	–	1285	0.548	0.517	0.487
[2], x1 = 0.4043	816	811.5	807	–	–	–	1275	0.556	0.523	0.491
[2], x1 = 0.5031	806.3	801.8	797.3	–	–	–	1266	0.564	0.532	0.5
[2], x1 = 0.5988	797.3	792.8	788.4	–	–	–	1256	0.577	0.544	0.51
[2], x1 = 0.7061	787.8	783.4	779	–	–	–	1246	0.592	0.558	0.524
[2], x1 = 0.8005	780	775.6	771.2	–	–	–	1237	0.614	0.577	0.54
[2], x1 = 0.8984	772.4	768	763.7	–	–	–	1227	0.643	0.603	0.563
[2], x1 = 1	765	760.7	756.3	–	–	–	1217	0.676	0.631	0.59
